Experimental data from the Kinase Knowledgebase extract (Sharma et al. 2016).

What follows are molecules tested against PIK3CD (Human) (UniProt O00329) (assay: Enzyme Assay).
Sequence of PIK3CD (Human) (O00329 whole entry, looked up): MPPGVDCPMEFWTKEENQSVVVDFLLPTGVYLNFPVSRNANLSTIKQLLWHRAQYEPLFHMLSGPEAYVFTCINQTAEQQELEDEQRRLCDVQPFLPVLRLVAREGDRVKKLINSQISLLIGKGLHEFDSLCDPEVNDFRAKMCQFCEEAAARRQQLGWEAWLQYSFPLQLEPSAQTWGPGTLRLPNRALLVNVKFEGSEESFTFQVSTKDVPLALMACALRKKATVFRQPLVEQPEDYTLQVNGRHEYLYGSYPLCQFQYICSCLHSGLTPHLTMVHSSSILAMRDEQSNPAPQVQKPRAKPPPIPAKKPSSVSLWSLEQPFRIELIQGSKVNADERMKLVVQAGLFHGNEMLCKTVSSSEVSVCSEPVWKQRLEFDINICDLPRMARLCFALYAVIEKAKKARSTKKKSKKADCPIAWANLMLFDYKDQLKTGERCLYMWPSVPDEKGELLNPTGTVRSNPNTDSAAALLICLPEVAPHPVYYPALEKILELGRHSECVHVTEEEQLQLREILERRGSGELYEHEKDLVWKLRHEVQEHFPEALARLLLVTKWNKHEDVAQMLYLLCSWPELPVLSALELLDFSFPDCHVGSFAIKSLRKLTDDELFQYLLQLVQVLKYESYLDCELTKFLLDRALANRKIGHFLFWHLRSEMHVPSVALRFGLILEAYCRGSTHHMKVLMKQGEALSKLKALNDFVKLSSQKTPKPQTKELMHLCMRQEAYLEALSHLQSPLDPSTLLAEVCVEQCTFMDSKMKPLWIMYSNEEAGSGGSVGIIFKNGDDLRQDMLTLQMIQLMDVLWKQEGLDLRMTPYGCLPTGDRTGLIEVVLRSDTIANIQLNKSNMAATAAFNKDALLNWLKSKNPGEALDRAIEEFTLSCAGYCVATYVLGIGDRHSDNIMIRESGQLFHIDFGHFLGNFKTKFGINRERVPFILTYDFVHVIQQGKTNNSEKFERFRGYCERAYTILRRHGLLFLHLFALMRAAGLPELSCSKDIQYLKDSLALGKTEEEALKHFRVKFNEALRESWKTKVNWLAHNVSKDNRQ

SMILES | IC50 [nM]
CCn1c(-c2cnc(C)nc2)nc2c(O[C@@H]3CN(C(=O)OC(C)(C)C)C[C@H]3O)ncnc21.CCn1c(-c2cnc(C)nc2)nc2c(O[C@H]3CN(C(=O)OC(C)(C)C)C[C@@H]3O)ncnc21 | 3.7
CCn1ncc(-c2nc3c(S[C@H]4CCN(C(=O)C5CC5)C4)ncnc3n2C)c1C | 3.8
CCn1ncc(-c2nc3c(O[C@H]4CCN(C(=O)c5c[nH]nc5C(F)(F)F)C4)ncnc3n2C)c1C | 21
Cn1c(-c2ccc(N3CCOCC3)nc2)nc2c(O[C@H]3CCN(C(=O)OC(C)(C)C)C3)ncnc21 | 4400
CCn1c(-c2cnc(C)nc2)nc2c(O[C@H]3C[C@H](NS(=O)(=O)CC)C3)ncnc21 | 150
CCC(=O)N1CC[C@H](Oc2ncnc3c2nc(-c2ccc4[nH]ccc4c2)n3C)C1 | 37
CCn1ncc(-c2nc3c(O[C@H]4CCN(C(=O)c5cnoc5C)C4)ncnc3n2C)c1C | 36
CCn1c(-c2cnc(C)nc2)nc2c(O[C@H]3CCN(c4ccccc4C)C3)ncnc21 | 85
CCn1ncc(-c2nc3c(O[C@H]4CCN(C(=O)c5cnn(C(C)C)c5)C4)ncnc3n2C)c1C | 30
CCn1c(-c2cnc(C)nc2)nc2c(O[C@H]3CCN(C(=O)C4CC4)C3)ncnc21 | 2.8
CCCN1CC[C@H](Oc2ncnc3c2nc(-c2cnn(CC)c2C)n3C)C1 | 380
CCn1c(-c2cnc(OC)c(C)c2)nc2c(O[C@H]3CCN(C(=O)OC(C)(C)C)C3)ncnc21 | 0.7
Cc1cc2cccc(-c3nc4c(O[C@H]5CCN(C(=O)OC(C)(C)C)C5)ncnc4n3C)c2[nH]1 | 660
CCn1ncc(-c2nc3c(O[C@H]4CCN(c5cc(-n6cc(C)cn6)ncn5)C4)ncnc3n2C)c1C | 160
CCn1c(C(=O)NCC(F)(F)F)nc2c(O[C@H]3CCN(C(=O)OC(C)(C)C)C3)ncnc21 | 31
CCn1ncc(-c2nc3c(O[C@H]4CCN(C(=O)c5nnc(C)o5)C4)ncnc3n2C)c1C | 31
CCn1ncc(-c2nc3c(O[C@H]4CCN(C(=O)c5cc(C(C)C)n[nH]5)C4)ncnc3n2C)c1C | 109
CCn1ncc(-c2nc3c(OC4CCN(C(=O)C5CCCCC5)C4)ncnc3n2C)c1C (configuration not stated) | 22
CCOC(=O)N1CC[C@H](Oc2ncnc3c2nc(-c2cnn(CC)c2C)n3C)C1 | 33
CCn1c(-c2cnc(N(C)C)nc2)nc2c(O[C@H]3CCN(C(=O)C4CC4)C3)ncnc21 | 23
CCn1ncc(-c2nc3c(O[C@H]4CCN(C(=O)c5cocn5)C4)ncnc3n2C)c1C | 19
CCn1ncc(-c2nc3c(CC4CCN(C(=O)OC(C)(C)C)C4)ncnc3n2C)c1C (configuration not stated) | 560
CCn1c(-c2cnc(C)nc2)nc2c(O[C@H]3CCN(C(=O)c4cocn4)C3)ncnc21 | 14

SMILES | IC50 [nM]
CCn1c(N2CCC(C)C2)nc2c(O[C@H]3CCN(C(=O)OC(C)(C)C)C3)ncnc21 (some centres not stated) | 570
CCn1c(-c2cnc(OC)c(C(F)(F)F)c2)nc2c(O[C@H]3CCN(C(=O)C4CC4)C3)ncnc21 | < 1
CCNC(=O)N1CC[C@H](Oc2ncnc3c2nc(-c2cnn(CC)c2C)n3C)C1 | 10
CCn1c(-c2cnc(C)nc2)nc2c(O[C@H]3CCN(C(=O)C4[C@@H](C)[C@@H]4C)C3)ncnc21 (some centres not stated) | 13
CCC(=O)N1CC[C@H](Oc2ncnc3c2nc(-c2ccc(OC)c(C)c2)n3C)C1 | 4.6
CCn1c(-c2cnc(C)nc2)nc2c(O[C@@H]3CN(C(=O)C4CC4)C[C@H]3OC)ncnc21 | 41
CCC(=O)N1CC[C@H](Oc2ncnc3c2nc(-c2ccc(OC)c(F)c2)n3C)C1 | 6.4
CCn1ncc(-c2nc3c(O[C@H]4CC[C@H](NC(=O)OC(C)(C)C)C4)ncnc3n2C)c1C | 140
CCn1ncc(-c2nc3c(O[C@H]4CCN(c5nccc(-c6ccco6)n5)C4)ncnc3n2C)c1C | 128
CCn1c(-c2cnc(N)c(C(F)(F)F)c2)nc2c(O[C@H]3CCN(C(=O)C4CC4)C3)ncnc21 | 1.1
Cc1nn(C)cc1-c1nc2c(O[C@H]3CCN(C(=O)OC(C)(C)C)C3)ncnc2n1C | 1200
CCn1c(-c2cnc(C)nc2)nc2c(O[C@H]3CCN(c4cncnc4)C3)ncnc21 | 47
CCn1c(-c2cnc(C)nc2)nc2c(O[C@H]3CCN(C(=O)C=C(C)C)C3)ncnc21 | 4.4
CCn1ncc(-c2nc3c(O[C@@H]4CC[C@H](NC(=O)C5CCOCC5)C4)ncnc3n2C)c1C | 290
Cn1c(-c2cn[nH]c2)nc2c(O[C@H]3CCN(C(=O)OC(C)(C)C)C3)ncnc21 | 28
COc1ncc(-c2nc3c(O[C@H]4CCN(C(=O)OC(C)(C)C)C4)ncnc3n2C)cc1C | 2.6
CCn1ncc(-c2nc3c(OC4CN(C(=O)OC(C)(C)C)C4)ncnc3n2C)c1C | 85
CCn1ncc(-c2nc3c(O[C@H]4CCN(S(=O)(=O)CC)C4)ncnc3n2C)c1C | 200
CCn1ncc(-c2nc3c(O[C@H]4CCN(C(C)=O)C4)ncnc3n2C)c1C | 56
CCn1ncc(-c2nc3c(OC4CCN(C(=O)C5CCCC5)C4)ncnc3n2C)c1C (configuration not stated) | 9.4
CCC(=O)N1CC[C@H](Oc2ncnc3c2nc(-c2cnn(-c4ccccc4)c2)n3C)C1 | 6.5
CCn1ncc(-c2nc3c(O[C@@H]4CC[C@H](NC(=O)OC(C)(C)C)C4)ncnc3n2C)c1C | 400
CCn1ncc(-c2nc3c(O[C@H]4CCN(Cc5ccc(N(C)C)cc5)C4)ncnc3n2C)c1C | 3100

SMILES | IC50 [nM]
Cc1ncc(-c2nc3c(O[C@H]4CCN(C(=O)OC(C)(C)C)C4)ncnc3n2C)cn1 | 99
CCC(=O)N1CC[C@H](Oc2ncnc3c2nc(-c2ccc(S(C)(=O)=O)cc2)n3C)C1 | 300
CCn1ncc(-c2nc3c(O[C@H]4CCN(C(=O)c5cnn6cccnc56)C4)ncnc3n2C)c1C | 11
CCn1ncc(-c2nc3c(OC4CCN(C(=O)COC)C4)ncnc3n2C)c1C (configuration not stated) | 77
CCn1c(-c2cnc(C)nc2)nc2c(O[C@H]3CCN(C(=O)N4CCC4)C3)ncnc21 | 1.3
CCC(=O)N1CC[C@H](Sc2ncnc3c2nc(-c2cnn(CC)c2C)n3C)C1 | 11
CCn1c(-c2cnc(C)nc2)nc2c(O[C@H]3CCN(C(=O)N(C)c4ccccc4)C3)ncnc21 | 32
CCn1ncc(-c2nc3c(O[C@H]4CCN(c5cc(C(F)(F)F)ccn5)C4)ncnc3n2C)c1C | 37
CCn1ncc(-c2nc3c(O[C@H]4CCN(C(=O)c5cnon5)C4)ncnc3n2C)c1C | 41
CCn1ncc(-c2nc3c(O[C@H]4CCN(C(=O)c5cccnc5)C4)ncnc3n2C)c1C | 19
CCn1c(-c2cnc(C)nc2)nc2c(O[C@H]3CCN(C(=O)C4(N)CCC4)C3)ncnc21 | 50
CCn1c(-c2cnc(C)nc2)nc2c(O[C@H]3CCN(C(=O)[C@@H](N)C(C)C)C3)ncnc21 | 9.8
CCn1ncc(-c2nc3c(O[C@H]4CCN(C(=O)Oc5cccc(C(F)(F)F)c5)C4)ncnc3n2C)c1C | 300
CCn1c(-c2cnc(C)nc2)nc2c(O[C@H]3CCN(C(=O)N4CC(F)C4)C3)ncnc21 | 5.1
CCn1ncc(-c2nc3c(S[C@H]4CCN(C(=O)OC(C)(C)C)C4)ncnc3n2C)c1C | 23
CCn1ncc(-c2nc3c(O[C@H]4CCN(C(=O)c5coc(C)n5)C4)ncnc3n2C)c1C | 6.5
CCn1ncc(-c2nc3c(O[C@H]4CCN(c5ncnc6ccsc56)C4)ncnc3n2C)c1C | 12
CCn1ncc(-c2nc3c(O[C@H]4CCN(S(=O)(=O)c5ccc6ccccc6c5)C4)ncnc3n2C)c1C | 220
CCn1ncc(-c2nc3c(O[C@H]4CCN(C(=O)NC(C)(C)CC(C)(C)C)C4)ncnc3n2C)c1C | 4.7
CCn1ncc(-c2nc3c(O[C@H]4CCN(C(=O)c5cncn5C)C4)ncnc3n2C)c1C | 5.4
CCn1c(-c2cnc(C)nc2)nc2c(O[C@H]3CCN(C(=O)[C@H]4C[C@H]5CC[C@@H]4C5)C3)ncnc21 | 1.2
